Measurements from patent publication US7094400B1, “Transkaryotic implantation” (Shire Human Genetic Therapies, Inc., priority 1987, dated 2006).

Assays:
[1] = tested on: Transfected cells which expressed human growth hormone; assay: Effects of immunosuppression on IP cells, serum human growth hormone; format: in vivo; details: for serum human growth hormone: in ng/mL
Description: If the transfected cells are destroyed by transplant rejection, immunosuppression should prolong the functional life of the implant.

[2] = tested on: mouse metallothionein-I promoter; assay: Zinc induction of hGH expression from intraperitoneally implanted cells (metallothionein-I promoter); format: in vivo, mice; details: 76 mM ZnSO4 in drinking water; IP stably transfected cells
Method: As described above, the plasmid pXGH5 contains the mouse metallothionein-I promoter. In order to determine whether the implanted cells were sufficiently healthy to respond to their local environment, the ability of zinc to induce higher levels of human growth hormone expression was determined. Stably transfected cells, prepared as described in Example 1B, were implanted intraperitoneally in mice, some of which were given 76 mM ZnSO4 in their drinking water. The animals treated with zinc expressed ten-fold more human growth hormone in their serum than did those with no treatment. […] Furthermore, RNA prepared from cells recovered from subcapsular implants contained the correct mMT-I/human growth hormone fusion mRNA (FIG. 5). […] Of substantial importance is the fact that the cells, once in place in the animal, could still be modulated by external means.

SMILES | serum human growth hormone detectable until [1] | serum human growth hormone ([1]; day 1 post-implantation) | serum human growth hormone ([1]; day 2 post-implantation) | serum human growth hormone ([1]; day 4 post-implantation) | serum human growth hormone ([1]; day 21 post-implantation) | serum human growth hormone ([1]; day 27 post-implantation) | serum human growth hormone ([1]; day 41 post-implantation) | serum human growth hormone ([1]; day 48 post-implantation) | serum human growth hormone ([1]; days 8 to 10 post-implantation) | serum human growth hormone ([1]; days 15 to 17 post-implantation) | human growth hormone in serum versus no treatment [2]
C[C@@H]1C[C@H]2[C@@H]3CCC4=CC(=O)C=C[C@]4(C)[C@@]3(F)[C@@H](O)C[C@]2(C)[C@@]1(O)C(=O)CO [Dexamethasone, dexamethasone] | 48 days post-implantation | 94.8 +/− 9.2 | 86.6 +/− 10.5 | 54.3 +/− 14.2 | 28.0 +/− 13.6 | 13.9 +/− 6.9 | 7.5 +/− 6.1 | 2.7 +/− 2.2 | 99.3 +/− 48.0 | 28.3 +/− 18.1 | 
O=S(=O)([O-])[O-].[Zn+2] [ZnSO4] |  |  |  |  |  |  |  |  |  |  | ten-fold more
